In US20160243015A1, “SKIN LIGHTENING COMPOSITION” (Conopco, Inc., d/b/a UNILEVER, priority 2013, published 2016):

Assays:
[1] = biological target: T1, human tyrosinase enzyme (Homo sapiens, UniProt P14679); assay: Tyrosinase inhibition assay (melanocyte lysate, L-DOPA/MBTH); type: biochemical
T1 construct: Human neonatal darkly pigmented melanocytes lysate was used as a source of tyrosinase enzyme; host or cells: human neonatal darkly pigmented melanocytes (crude NP-40 lysate supernatant)
T1 sequence (P14679 19-529): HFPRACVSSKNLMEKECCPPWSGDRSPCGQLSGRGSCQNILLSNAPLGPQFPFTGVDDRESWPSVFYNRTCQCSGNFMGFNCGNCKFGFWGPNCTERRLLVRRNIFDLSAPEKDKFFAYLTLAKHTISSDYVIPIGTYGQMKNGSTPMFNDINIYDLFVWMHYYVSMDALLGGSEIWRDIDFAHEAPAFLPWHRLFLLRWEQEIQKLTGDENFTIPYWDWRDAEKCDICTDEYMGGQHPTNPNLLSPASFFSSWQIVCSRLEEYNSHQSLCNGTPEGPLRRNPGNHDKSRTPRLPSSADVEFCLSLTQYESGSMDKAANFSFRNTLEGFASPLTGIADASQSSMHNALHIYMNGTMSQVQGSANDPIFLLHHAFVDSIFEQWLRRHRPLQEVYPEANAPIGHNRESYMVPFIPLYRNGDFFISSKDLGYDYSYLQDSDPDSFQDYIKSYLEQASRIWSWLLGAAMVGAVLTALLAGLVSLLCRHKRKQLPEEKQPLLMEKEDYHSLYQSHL

[2] = tested on: Melanoderm cultures (human keratinocytes and melanocytes), melanin production; assay: Assay of pigment production by Living Skin Equivalents (Melanoderm); type: cell-based; set-up: inhibition: dose or concentration left out as unconfirmed; conditions: 14 days, melanin normalized to protein levels; for % inhibition of melanin production compared to vehicle control: 10 μM; for inhibition: Homo sapiens, 336 h, read-out: % inhibition of melanin production compared to vehicle control
From the text: Assay of pigment production by Living Skin Equivalents (Melanoderms™)
So called reconstructed pigmented ‘skin’ cultures containing keratinocytes and melanocytes are commercially available and, for example, can be purchased from MatTek Corp, 200, Homer Avenue, Ashland, Mass., USA, under the trade name Melanoderm™. Melanoderms™ (catalogue reference MEL-300) containing melanocytes from […] donor skin were maintained in EPI-100-NMM113 media following the manufacturer's instructions and using standard methods for the maintenance of cultured mammalian cells under aseptic conditions. The Melanoderm™ cultures were treated with test agents for a total of 14 days. During the 14 day culture period the melanocytes in the Melanoderm™ cultures synthesise melanin in specialised vesicular structures called melanosomes. The pigmented melanosomes are transferred to the adjacent keratinocytes and the transferred-melanosomes tend to accumulate over the nucleus of the keratinocytes. This process is the same as occurs in skin in vivo and accordingly the Melanoderm™ culture is considered to be a very good test ‘skin tissue’ to mimic the effect of the skin pigmentation process in vivo. A compound that leads to a reduction in melanin production in the Melanoderm™ culture over 14 days by 10% or more is considered to have a positive pigment reducing effect. It is important that the reduction in pigment occurs without substantive loss of cell viability such that the inhibitory effect of the test compound is due to its biological function rather than due to cell toxicity.
Culture media changes and re-dosing of compounds at selected concentrations took place every 2 or 3 days during the test period. Melanoderm™ cultures were also treated with control materials including the vehicle (dimethylsulphoxide (DMSO)) used to dissolve the test material and a positive control material known to lead to the synthesis of reduced amounts of melanin in the cultures. 4-ethylresorcinol was used as a positive control. After 14 days culture, transmitted-light microscopy images were captured for every culture using a Leica DM IL microscope at ×20 magnification.
The cell viability of the cultures was assessed using the so called WST-1 (Water Soluble Tetrazolium Salt-1) assay purchased from Roche Applied Science and following the manufacturer's instructions. The stable tetrazolium salt WST-1 is cleaved to a soluble formazan dye by a complex cellular mechanism that occurs primarily at the cell surface. This bioreduction is largely dependent on the glycolytic production of NADPH in viable cells. Therefore, the amount of soluble formazan dye formed in the culture medium directly correlates to the number of metabolically active cells in the culture. Cultures were incubated with WST-1 in the medium for 1 hour and production of formazan measured at 450 nm using a spectrophotometer plate reader, e.g. a BMG Labtech FLUOstar plate reader. Cultures were considered ‘viable’ if they generated greater than 80% of the control value of formazan product. Subsequently the culture was washed briefly in phosphate buffer solution (PBS) and total melanin and protein extracted together from each culture using 250 μl Solvable™ (Perkin Elmer product 6NE9100) reagent at 60° C. overnight as recommended by the manufacturer. The total protein content using a sample of the extracts was determined using the so called BCA (bicinchoninic acid) assay. The BCA assay may be purchased from Pierce Chemical Company and conducted following the manufacturer's instructions. Melanin was determined by measuring the absorbance at 485 nm, for example using a BMG Labtech FLUOstar plate reader. The amount of melanin extracted from each culture was determined by reference to a standard synthetic-melanin curve (Sigma Aldrich Chemical Company catalogue reference M8631). […]

With `CCc1ccc(O)cc1O` [4-ethyl resorcinol] the inhibition at 10 µM [1] was 29%.

In the case of `O=C(COc1ccccc1)NC(=S)Nc1ccc(I)cn1` [NC-0475, N-[[(5-iodo-2-pyridinyl)-amino]-thioxomethyl]-2-phenoxyacetamide], the “% inhibition of melanin production compared to vehicle control” value (“% inhibition of melanin production” for short) [2] is reported as 53% and the inhibition [2] is reported as over 50%.

In the case of `O=C(COc1ccccc1)NC(=S)Nc1ccc(Cl)cn1` [S12, N-[[(5-chloro-2-pyridinyl)-amino]-thioxomethyl]-2-phenoxyacetamide], the “% inhibition of melanin production” value [2] is reported as 47% and the inhibition [2] is reported as 40 to 50%.

For `Cc1ccc(OCC(=O)NC(=S)Nc2ccc(Cl)cn2)cc1` [S13, N-[[(5-chloro-2-pyridinyl)-amino]-thioxomethyl]-2-(4-methylphenoxy)-acetamide], the “% inhibition of melanin production” value [2] was 35% and the inhibition [2] was 30 to 40%.

Work on `O=C(COc1ccccc1)NC(=S)Nc1ccccn1` [S14, N-[[2-pyridinylamino]-thioxomethyl]-2-phenoxyacetamide] yielded an inhibition [2] of 10%.

`Cc1cc(OCC(=O)NC(=S)Nc2ccc(I)cn2)cc(C)c1Cl` [S15, N-[[(5-iodo-2-pyridinyl)-amino]-thioxomethyl]-2-(4-chloro-3,5-dimethylphenoxy)-acetamide] was tested, and the “% inhibition of melanin production” value [2] was 43% and the inhibition [2] was 40 to 50%.

`CC(C)c1ccc(OCC(=O)NC(=S)Nc2ccc(Cl)cn2)cc1` [S16, N-[[(5-chloro-2-pyridinyl)-amino]-thioxomethyl]-2-[4-(1-methylethyl)-phenoxy]-acetamide] was tested, and the “% inhibition of melanin production” value [2] was 38% and the inhibition [2] was 30 to 40%.

For `O=C(COc1ccc(Cl)cc1Cl)NC(=S)Nc1ccc(I)cn1` [S17, N-[[(5-iodo-2-pyridinyl)-amino]-thioxomethyl]-2-(2,4-dichlorophenoxy)-acetamide], the “% inhibition of melanin production” value [2] was 43% and the inhibition [2] was 40 to 50%.

With `O=C(COc1ccc(Cl)cc1)NC(=S)Nc1ccc(I)cn1` [S18, N-[[(5-iodo-2-pyridinyl)-amino]-thioxomethyl]-2-(4-chlorophenoxy)-acetamide] the “% inhibition of melanin production” value [2] was 28% and the inhibition [2] was 20 to 30%.

With `CC(C)(C)c1ccc(OCC(=O)NC(=S)Nc2ccc(I)cn2)cc1` [S19, N-[[(5-iodo-2-pyridinyl)-amino]-thioxomethyl]-2-[4-(1,1-dimethylethyl)phenoxy]-acetamide] the “% inhibition of melanin production” value [2] was 22% and the inhibition [2] was 20 to 30%.

`Cc1cccc(OCC(=O)NC(=S)Nc2ccc(I)cn2)c1` [S20, N-[[(5-iodo-2-pyridinyl)-amino]-thioxomethyl]-2-(3-methylphenoxy)-acetamide] was tested, and the “% inhibition of melanin production” value [2] was 22% and the inhibition [2] was 20 to 30%.

For `Cc1nc(NC(=S)NC(=O)COc2ccccc2)ccc1I` [S21, N-[[(5-iodo-6-methyl-2-pyridiny)lamino]-thioxomethyl]-2-phenoxyacetamide], the “% inhibition of melanin production” value [2] was 39% and the inhibition [2] was 30 to 40%.
